# According to patent publication EP0735879B1, “USE OF AMINO CYCLODEXTRINS FOR THE AQUEOUS SOLUBILISATION OF DIBENZAZEPINES FOR USE AS AN ANTIEPILEPTIC AGENT” (COMMISSARIAT A L'ENERGIE ATOMIQUE, priority 1993, dated 1995):
# Values joined by “and” are separate entries in the source; they are usually repeats but may differ in a detail not shown here. Equal values may be shown once.
# Legend:
# [1] = in vitro; settings: human, erythrocytes, pH 7
# Experimental: Les propriétés hémolytiques du chlorhydrate ont été testées en mettant en contact 0,4 ml d'une suspension d'érythrocytes humains avec 4 ml de la solution du chlorhydrate dans 10 mmol d'un tampon phosphate isotonique à un pH de 7,4, pendant 30 minutes à 37°C.
# [2] = test system: rat Sprague-Dawley mâle et femelle; assay: Acute toxicity, intravenous injection; assay type: in vivo; settings: voie intraveineuse, chlorhydrate, 2g/kg de poids corporel
# [3] = pH of an aqueous solution of the hydrochloride; assay type: physicochemical; settings: solution à 1 % en poids du chlorhydrate dans de l'eau
# [4] = test system: Salmonella typhimurium; assay: Ames test, mutagenicity; assay type: cell-based; settings: test de AMES, souches de Salmonella typhimurium
# [5] = Solubility in water of the cyclodextrin; assay type: physicochemical; settings: 20°C, read-out: solubilité dans l'eau
# [6] = test system: Escherichia Coli; assay: Ames test, mutagenicity; assay type: cell-based; settings: test de AMES, souches d'Escherichia Coli
# [7] = physchem; assay type: physicochemical; settings: 25°C, read-out: solubilité de la carbamazépine
# Experimental: Dans cet exemple on évalue la solubilisation de la carbamazépine par différents dérivés de cyclodextrines dans des conditions standardisées. Les mesures de solubilité sont réalisées à 25°C en présence de la cyclodextrine considérée à la concentration de 25 mmol/l, le pH de la solution étant ajusté dans tous les cas à 7,4 pour simuler autant que posible les conditions physiologiques.
# [8] = 25°C; cited from earlier work
"solubility ([7]; phosphate buffer, pH 7.4, aqueous buffer, Tampon Phosphate 7,4, without cyclodextrin) [µM]","solubility ([7]; pure water, water, Eau pure, without cyclodextrin) [µM]",SMILES,HC50 at 0.5 h [1],mortalité [2],pH [3],activité mutagène [4],solubility [5] [mg/mL],activité mutagène [6],solubilité dans l'eau pure [8] [µg/mL]
,,"OC[C@H]1O[C@@H]2O[C@H]3[C@H](O)[C@@H](O)[C@@H](O[C@H]4[C@H](O)[C@@H](O)[C@@H](O[C@H]5[C@H](O)[C@@H](O)[C@@H](O[C@H]6[C@H](O)[C@@H](O)[C@@H](O[C@H]7[C@H](O)[C@@H](O)[C@@H](O[C@H]8[C@H](O)[C@@H](O)[C@@H](O[C@H]1[C@H](O)[C@H]2O)O[C@@H]8CO)O[C@@H]7CO)O[C@@H]6CO)O[C@@H]5CO)O[C@@H]4CO)O[C@@H]3CO [β-CD, β-cyclodextrine, reference compound]",5 mM and ~6000 µg/mL,,,,,,
,,"NC[C@H]1O[C@@H]2O[C@H]3[C@H](O)[C@@H](O)[C@@H](O[C@H]4[C@H](O)[C@@H](O)[C@@H](O[C@H]5[C@H](O)[C@@H](O)[C@@H](O[C@H]6[C@H](O)[C@@H](O)[C@@H](O[C@H]7[C@H](O)[C@@H](O)[C@@H](O[C@H]8[C@H](O)[C@@H](O)[C@@H](O[C@H]1[C@H](O)[C@H]2O)O[C@@H]8CO)O[C@@H]7CO)O[C@@H]6CO)O[C@@H]5CO)O[C@@H]4CO)O[C@@H]3CO [β-CD-NH2, mono-6-amino-β-cyclodextrine]",~30 mM and ~35000 µg/mL,aucune mortalité,"6,8",aucune activité mutagène,200,aucune activité mutagène,
< 70,< 50,"NC(=O)N1c2ccccc2C=Cc2ccccc21 [Carbamazépine, carbamazépine]",,,,,,,12
